Experimental data: US9199941B2, “Pyrazole indanyl carboxamides” (BAYER CROPSCIENCE AG, priority 2012, dated 2015)

Columns and labels:
Uromyces appendiculatus = assay: In vivo preventive test on Uromyces appendiculatus (bean rust); settings: preventive spray, bean plants, grading 11 days after contamination
Protocol: Bean plants (“Saxa” variety), sown in starter cups on a 50/50 peat soil-pozzolana substrate and grown at 24° C., are treated at the 2-leaf stage (9 cm height) by spraying with the active ingredient prepared as described above. Plants, used as controls, are treated with the mixture of acetone/tween/DMSO/water not containing the active material. After 24 hours, the plants are contaminated by spraying the leaves with an aqueous suspension of Uromyces appendiculatus spores (150 000 spores per ml). […] Grading (% of efficacy) is carried out 11 days after the contamination, in comparison with the control plants.

Sphaerotheca fuliginea = assay: In vivo preventive test on Sphaerotheca fuliginea (powdery mildew on cucurbits); settings: preventive spray, gherkin plants, grading 12 days after contamination
Protocol: Gherkin plants (“Vert petit de Paris” variety), sown in starter cups on a 50/50 peat soil-pozzolana substrate and grown at 24° C., are treated at the Z11 cotyledon stage by spraying with the active ingredient prepared as described above. Plants, used as controls, are treated with the mixture of acetone/tween/DMSO/water not containing the active material. After 24 hours, the plants are contaminated by spraying the cotyledons with an aqueous suspension of Sphaerotheca fuliginea spores (100 000 spores per ml). The spores are collected from infected plants. The contaminated gherkin plants are incubated at about 20° C. and at 70-80% relative humidity. Grading (% of efficacy) is carried out 12 days after the contamination, in comparison with the control plants.

Septoria tritici = assay: In vivo preventive test on Septoria tritici (leaf spot on wheat); settings: 500 ppm, preventive spray, wheat plants, grading 24 days after contamination
Protocol: Wheat plants (“Scipion” variety), sown in starter cups on a 50/50 peat soil-pozzolana substrate and grown at 22° C., are treated at the 1-leaf stage (10 cm height) by spraying with the active ingredient prepared as described above. Plants, used as controls, are treated with the mixture of acetone/tween/DMSO/water not containing the active material. After 24 hours, the plants are contaminated by spraying the leaves with an aqueous suspension of cryopreserved Septoria tritici spores (500 000 spores per ml). […] Grading (% of efficacy) is carried out 24 days after the contamination, in comparison with the control plants.

[1] = log P by HPLC on reversed phase columns (EEC directive 79/831 Annex V.A8); type: physicochemical; settings: for logP: Table 1, compounds of formula (I), method [a]: LC-MS at pH 2.7, 0.1% formic acid in water / acetonitrile
Pyrenophora teres = assay: In vivo preventive test on Pyrenophora teres (net blotch on barley); settings: preventive spray, barley plants, incubated 48 hours then 12 days; for Eff. %: 500 ppm; for Efficacy: 100 ppm
Protocol: Barley plants (“Plaisant” variety), sown in starter cups on a 50/50 peat soil-pozzolana substrate and grown at 22° C., are treated at the 1-leaf stage (10 cm height) by spraying with the active ingredient prepared as described above. Plants, used as controls, are treated with the mixture of acetone/tween/DMSO/water not containing the active material. After 24 hours, the plants are contaminated by spraying the leaves with an aqueous suspension of Pyrenophora teres spores (12 000 spores per ml). The spores are collected from a 12-day-old culture.

Alternaria brassicae = assay: In vivo preventive test on Alternaria brassicae (leaf spot on radish); settings: 500 ppm, preventive spray, radish plants, grading 6 days after contamination
Protocol: Radish plants (“Pernod Clair” variety), sown in starter cups on a 50/50 peat soil-pozzolana substrate and grown at 17° C., are treated at the cotyledon stage by spraying with the active ingredient prepared as described above. Plants, used as controls, are treated with the mixture of acetone/tween/DMSO/water not containing the active material. After 24 hours, the plants are contaminated by spraying the cotyledons with an aqueous suspension of Alternaria brassicae spores (50 000 spores per ml). The spores are collected from a 15-day-old culture. […] Grading (% of efficacy) is carried out 6 days after the contamination, in comparison with the control plants.

Puccinia recondita = assay: In vivo preventive test on Puccinia recondita (brown rust on wheat); settings: preventive spray, wheat plants, grading 12 days after contamination
Protocol: Plants, used as controls, are treated with the mixture of acetone/tween/DMSO/water not containing the active material. After 24 hours, the plants are contaminated by spraying the leaves with an aqueous suspension of Puccinia […] spores (100 000 spores per ml). […] Grading (% of efficacy) is carried out 12 days after the contamination, in comparison with the control plants.

| SMILES | Eff. % (Uromyces appendiculatus; 500 ppm) [%] | Eff. % (Sphaerotheca fuliginea; 500 ppm) [%] | Eff. % (Septoria tritici) [%] | logP [1] | Eff. % (Pyrenophora teres) [%] | Eff. % (Alternaria brassicae) [%] | Eff. % (Puccinia recondita; 500 ppm) [%] | Efficacy (Pyrenophora teres) | chromatographic logP ([1]; pH 2.7) | Eff. % (Uromyces appendiculatus; 100 ppm) [%] | Eff. % (Sphaerotheca fuliginea; 100 ppm) [%] | Eff. % (Puccinia recondita; 100 ppm) [%] |
| --- | --- | --- | --- | --- | --- | --- | --- | --- | --- | --- | --- | --- |
| Cn1cc(C(=O)Nc2cccc3c2CCC32CC2(Cl)Cl)c(C(F)F)n1 (stereo not shown) [Example 5] | 100 | 100 | 71 | 3.33[a] |  |  |  |  |  |  |  |  |
| Cc1nn(C)c(F)c1C(=O)Nc1cccc2c1C(C)CC2CC(C)C (stereo not shown) [Example 20] | 100 | 98 | 79 | 4.32[a] | 97 | 93 | 100 |  |  |  |  |  |
| CCC1(C)CCc2c(NC(=O)c3cn(C)nc3C(F)F)cccc21 (stereo not shown) [Example 24] | 97 | 98 | 92 | 3.62[a] | 80 |  | 98 |  |  |  |  |  |
| CC(C)CC1CC(C)c2c(NC(=O)c3cn(C)nc3C(F)F)cccc21 (stereo not shown) [Example 33] | 100 | 100 | 93 | 4.24[a] | 97 | 97 | 98 |  |  |  |  |  |
| CON=C1CC(C)c2c(NC(=O)c3cn(C)nc3C(F)F)cccc21 (stereo not shown) [Example 31] | 99 |  | 79 | 2.45[a] |  |  |  |  |  |  |  |  |
| CC1CC2(CC2)c2cccc(NC(=S)c3cn(C)nc3C(F)F)c21 (stereo not shown) [Example 38] |  |  |  | 4.61[a] |  | 71 | 83 | 70% |  |  |  |  |
| Cc1nn(C)c(C)c1C(=O)Nc1cccc2c1C(C)CC21CC1 (stereo not shown) [Example 22, 1,3,5-trimethyl-N-(3′-methyl-2′,3′-dihydrospiro[cyclopropane-1,1′-inden]-4′-yl)-1H-pyrazole-4-carboxamide] | 100 |  |  |  |  |  | 81 |  | 2.7 |  |  |  |
| Cn1cc(C(=O)Nc2cccc3c2CCC3C(C)(C)C)c(C(F)F)n1 (stereo not shown) [Example 28] | 100 | 100 | 86 | 3.94[a] |  |  | 100 |  |  |  |  |  |
| CC1CCc2cccc(NC(=O)c3cn(C)nc3C(F)F)c21 (stereo not shown) [Example 9] | 100 |  | 97 | 2.78[a] | 96 | 92 | 100 | at least 70% |  |  |  |  |
| CC1CC(C(C)C)c2cccc(NC(=O)c3cn(C)nc3C(F)F)c21 (stereo not shown) [Example 6] | 100 | 97 | 92 | 3.82[a] | 96 | 100 | 100 |  |  |  |  |  |
| Cn1cc(C(=O)Nc2cccc3c2CCC32OCCO2)c(C(F)F)n1 [Example 12] |  |  |  | 1.9[a] |  | 86 | 83 |  |  |  |  |  |
| Cc1nn(C)c(F)c1C(=S)Nc1cccc2c1C(C)CC2CC(C)(C)C (stereo not shown) [Example 43] | 100 | 100 |  | 4.87[a] |  |  | 98 |  |  |  |  |  |
| Cc1nn(C)c(C)c1C(=O)Nc1cccc2c1CCC21CC1 [Example 13] | 100 |  |  | 2.57[a] |  |  | 89 |  |  |  |  |  |
| Cc1c(C(=O)Nc2cccc3c2C(C)CC32CC2)cnn1C (stereo not shown) [Example 48] |  |  |  | 2.55[a] |  |  |  |  |  | 100 | 81 | 98 |
| Cc1nn(C)c(C)c1C(=S)Nc1cccc2c1C(C)CC2CC(C)C (stereo not shown) [Example 40] | 100 |  |  | 4.25[a] |  |  | 98 |  |  |  |  |  |
| CC1CC(CC(C)(C)C)c2cccc(NC(=O)c3cn(C)nc3C(F)F)c21 (stereo not shown) [Example 18] | 100 | 100 | 93 | 4.44[a] |  | 83 | 100 |  |  |  |  |  |
| CCON=C1CC(C)c2c(NC(=O)c3c(C)nn(C)c3F)cccc21 (stereo not shown) [Example 29] | 80 |  |  | 2.76[a] | 75 |  | 81 |  |  |  |  |  |

| SMILES | Eff. % (Uromyces appendiculatus; 500 ppm) [%] | Eff. % (Sphaerotheca fuliginea; 500 ppm) [%] | Eff. % (Septoria tritici) [%] | logP [1] | Eff. % (Pyrenophora teres) [%] | Eff. % (Alternaria brassicae) [%] | Eff. % (Puccinia recondita; 500 ppm) [%] | Efficacy (Pyrenophora teres) | chromatographic logP ([1]; pH 2.7) | Eff. % (Uromyces appendiculatus; 100 ppm) [%] | Eff. % (Sphaerotheca fuliginea; 100 ppm) [%] | Eff. % (Puccinia recondita; 100 ppm) [%] |
| --- | --- | --- | --- | --- | --- | --- | --- | --- | --- | --- | --- | --- |
| Cn1cc(C(=O)Nc2cccc3c2CCC32CC2)c(C(F)F)n1 [Example 17] | 100 |  |  | 2.96[a] | 70 |  | 98 |  |  |  |  |  |
| CCCON=C1CC(C)c2c(NC(=O)c3c(C)nn(C)c3F)cccc21 (stereo not shown) [Example 19] | 93 | 89 |  | 3.24[a] | 75 |  | 81 |  |  |  |  |  |
| CCON=C1CC(C)c2c(NC(=O)c3cn(C)nc3C(F)F)cccc21 (stereo not shown) [Example 34] | 97 |  | 86 | 2.78[a] | 83 | 86 | 81 |  |  |  |  |  |
| Cc1nn(C)c(O)c1C(=O)Nc1cccc2c1CCC21CC1 [Example 26] |  |  | 71 | 2.04[a] |  |  |  |  |  |  |  |  |
| CC1CC2(CC2)c2cccc(NC(=S)c3cn(C)nc3C(F)(F)F)c21 (stereo not shown) [Example 41] | 100 | 98 |  |  |  | 75 | 100 |  |  |  |  |  |
| CC1CC2(CC2(Cl)Cl)c2cccc(NC(=O)c3cn(C)nc3C(F)F)c21 (stereo not shown) [Example 4] | 100 | 100 | 100 | 3.5[a] |  |  | 100 |  |  |  |  |  |
| CCCON=C1CC(C)c2c(NC(=O)c3cn(C)nc3C(F)F)cccc21 (stereo not shown) [Example 11] | 90 |  |  | 3.26[a] | 83 | 93 | 81 |  |  |  |  |  |
| CC(C)C1CCc2c(NC(=O)c3cn(C)nc3C(F)F)cccc21 (stereo not shown) [Example 2] | 100 | 94 |  | 3.6[a] |  |  | 98 |  |  |  |  |  |
| Cc1nn(C)c(C)c1C(=O)Nc1cccc2c1C(C)CC2CC(C)C (stereo not shown) [Example 14] | 99 |  |  | 3.87[a] |  |  | 98 |  |  |  |  |  |
| CC1CC(CC(C)(C)C)c2cccc(NC(=S)c3cn(C)nc3C(F)F)c21 (stereo not shown) [Example 42] | 100 | 100 | 88 |  |  | 75 | 98 |  |  |  |  |  |
| CCCCON=C1CCc2c(NC(=O)c3cn(C)nc3C(F)F)cccc21 [Example 21] |  |  | 70 | 3.59[a] |  |  |  |  |  |  |  |  |
| CC(C)CC1CCc2c(NC(=O)c3cn(C)nc3C(F)F)cccc21 (stereo not shown) [Example 32] | 100 | 98 | 71 | 4.11[a] |  |  | 98 |  |  |  |  |  |
| CON=C1CC(C)c2c(NC(=O)c3c(C)nn(C)c3F)cccc21 (stereo not shown) [Example 27] |  |  |  | 2.33[a] |  | 75 | 86 |  |  |  |  |  |
| Cc1nn(C)c(F)c1C(=O)Nc1cccc2c1C(C)CC2CC(C)(C)C (stereo not shown) [Example 35] | 100 | 100 |  | 4.61[a] |  |  | 98 |  |  |  |  |  |
| CC1CC2(CC2(Cl)Cl)c2cccc(NC(=O)c3cn(C)nc3C(F)F)c21 (stereo not shown) [Example 3] | 100 | 100 | 100 | 3.46[a] | 81 |  | 94 |  |  |  |  |  |
| CCCON=C1CCc2c(NC(=O)c3cn(C)nc3C(F)F)cccc21 [Example 30] | 95 | 90 | 85 | 3.15[a] |  |  | 71 |  |  |  |  |  |
